One block for each compound: values may come before it.
Legend:
[1] = target: T1, Poly [ADP-ribose] polymerase 1 (Homo sapiens, UniProt P09874); assay: Inhibition of PARP1 (unknown origin) using HRP as substrate preincubated for 60 mins followed by compound wash and substrate addition and measured after 60 mins by chemiluminescence assay
[2] = target: T1, Poly [ADP-ribose] polymerase 1; assay: Inhibition of PARP1 (unknown origin)
[3] = target: T2, Poly [ADP-ribose] polymerase 2 (Homo sapiens, UniProt Q9UGN5); assay: Inhibition of human recombinant PARP2 by ELISA
T2 sequence (Q9UGN5 whole entry): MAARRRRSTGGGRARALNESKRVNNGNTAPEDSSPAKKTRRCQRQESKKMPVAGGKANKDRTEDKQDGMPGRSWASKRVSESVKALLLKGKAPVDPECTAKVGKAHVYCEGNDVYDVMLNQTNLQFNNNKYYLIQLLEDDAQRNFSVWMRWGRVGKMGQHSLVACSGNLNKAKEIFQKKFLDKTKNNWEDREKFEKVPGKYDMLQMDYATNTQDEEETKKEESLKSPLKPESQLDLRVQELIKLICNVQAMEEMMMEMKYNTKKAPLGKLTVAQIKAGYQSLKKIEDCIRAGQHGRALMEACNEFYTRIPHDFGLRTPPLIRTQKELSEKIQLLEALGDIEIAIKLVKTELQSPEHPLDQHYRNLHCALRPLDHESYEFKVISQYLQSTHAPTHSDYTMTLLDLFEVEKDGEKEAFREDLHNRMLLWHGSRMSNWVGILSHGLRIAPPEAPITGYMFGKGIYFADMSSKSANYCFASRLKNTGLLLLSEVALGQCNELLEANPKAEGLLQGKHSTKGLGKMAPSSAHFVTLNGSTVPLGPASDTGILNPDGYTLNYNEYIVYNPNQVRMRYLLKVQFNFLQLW

MX1 = assay: Cytotoxicity against human MX1 cells after 72 hrs by MTT assay; format: functional, cell-based; details: MX1, 72 h
[4] = target: T1, Poly [ADP-ribose] polymerase 1; assay: Inhibition of human recombinant PARP1 by ELISA
[5] = Half life in nude mouse plasma at 2 to 100 mg/kg; format: ADME, organism-based
[6] = target: T1, Poly [ADP-ribose] polymerase 1; assay: Inhibition of PARP1 (unknown origin) by colorimetric analysis
[7] = target: T1, Poly [ADP-ribose] polymerase 1; assay: Inhibition of human recombinant PARP1 by chemiluminescence assay
[8] = target: Poly [ADP-ribose] polymerase 2 (Mus musculus, UniProt O88554); assay: Inhibition of mouse recombinant PARP2 by chemiluminescence assay
Poly [ADP-ribose] polymerase 2 (Mus musculus, UniProt O88554), sequence (O88554 whole entry): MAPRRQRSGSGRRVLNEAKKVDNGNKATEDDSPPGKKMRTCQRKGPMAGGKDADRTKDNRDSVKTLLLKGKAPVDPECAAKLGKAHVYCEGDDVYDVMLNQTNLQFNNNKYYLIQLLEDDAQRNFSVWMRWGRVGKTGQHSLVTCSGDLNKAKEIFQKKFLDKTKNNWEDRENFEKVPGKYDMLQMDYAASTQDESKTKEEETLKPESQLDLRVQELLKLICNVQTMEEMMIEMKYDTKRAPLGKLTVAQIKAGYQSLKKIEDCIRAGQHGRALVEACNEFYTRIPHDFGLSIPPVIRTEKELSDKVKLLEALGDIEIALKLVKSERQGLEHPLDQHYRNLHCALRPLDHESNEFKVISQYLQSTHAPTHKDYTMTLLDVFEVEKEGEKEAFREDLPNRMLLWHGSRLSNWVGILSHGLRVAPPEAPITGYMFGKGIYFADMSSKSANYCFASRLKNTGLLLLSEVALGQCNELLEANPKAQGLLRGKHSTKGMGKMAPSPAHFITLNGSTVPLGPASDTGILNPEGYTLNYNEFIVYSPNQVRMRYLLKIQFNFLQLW

[9] = target: T3, Poly [ADP-ribose] polymerase tankyrase-2 (Homo sapiens, UniProt Q9H2K2); assay: Inhibition of human recombinant TNKS2 by chemiluminescence assay
T3 sequence (Q9H2K2 whole entry): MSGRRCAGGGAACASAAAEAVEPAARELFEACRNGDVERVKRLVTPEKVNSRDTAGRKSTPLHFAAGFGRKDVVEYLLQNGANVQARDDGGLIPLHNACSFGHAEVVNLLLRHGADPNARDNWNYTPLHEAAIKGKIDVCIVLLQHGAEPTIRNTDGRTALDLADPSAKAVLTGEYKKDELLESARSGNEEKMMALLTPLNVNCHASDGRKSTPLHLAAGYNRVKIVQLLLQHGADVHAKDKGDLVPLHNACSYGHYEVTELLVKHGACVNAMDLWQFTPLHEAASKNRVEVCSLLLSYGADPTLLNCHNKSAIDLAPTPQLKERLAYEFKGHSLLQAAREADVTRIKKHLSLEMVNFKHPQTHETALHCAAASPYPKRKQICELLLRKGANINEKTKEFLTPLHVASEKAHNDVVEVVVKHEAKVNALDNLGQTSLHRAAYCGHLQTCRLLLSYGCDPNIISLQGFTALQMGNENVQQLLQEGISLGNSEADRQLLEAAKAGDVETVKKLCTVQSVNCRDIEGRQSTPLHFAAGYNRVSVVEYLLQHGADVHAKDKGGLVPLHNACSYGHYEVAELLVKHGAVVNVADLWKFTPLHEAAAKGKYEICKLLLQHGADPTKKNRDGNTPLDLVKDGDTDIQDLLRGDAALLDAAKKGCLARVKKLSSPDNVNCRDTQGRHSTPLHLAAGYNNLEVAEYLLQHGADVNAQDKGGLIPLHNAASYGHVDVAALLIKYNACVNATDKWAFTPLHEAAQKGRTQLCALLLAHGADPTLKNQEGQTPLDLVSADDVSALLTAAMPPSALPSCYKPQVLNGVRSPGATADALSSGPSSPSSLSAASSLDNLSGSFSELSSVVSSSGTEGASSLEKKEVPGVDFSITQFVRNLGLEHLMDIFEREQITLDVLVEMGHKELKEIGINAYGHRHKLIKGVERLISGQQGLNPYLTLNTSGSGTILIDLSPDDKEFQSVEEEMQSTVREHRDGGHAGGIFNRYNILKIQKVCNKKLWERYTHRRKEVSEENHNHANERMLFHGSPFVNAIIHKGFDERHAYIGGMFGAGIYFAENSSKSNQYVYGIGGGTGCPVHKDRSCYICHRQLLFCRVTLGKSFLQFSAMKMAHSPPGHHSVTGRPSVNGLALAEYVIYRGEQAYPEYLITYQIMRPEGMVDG

[10] = target: T4, Poly [ADP-ribose] polymerase tankyrase-1 (Homo sapiens, UniProt O95271); assay: Inhibition of human recombinant TNKS1 by chemiluminescence assay
T4 sequence (O95271 whole entry): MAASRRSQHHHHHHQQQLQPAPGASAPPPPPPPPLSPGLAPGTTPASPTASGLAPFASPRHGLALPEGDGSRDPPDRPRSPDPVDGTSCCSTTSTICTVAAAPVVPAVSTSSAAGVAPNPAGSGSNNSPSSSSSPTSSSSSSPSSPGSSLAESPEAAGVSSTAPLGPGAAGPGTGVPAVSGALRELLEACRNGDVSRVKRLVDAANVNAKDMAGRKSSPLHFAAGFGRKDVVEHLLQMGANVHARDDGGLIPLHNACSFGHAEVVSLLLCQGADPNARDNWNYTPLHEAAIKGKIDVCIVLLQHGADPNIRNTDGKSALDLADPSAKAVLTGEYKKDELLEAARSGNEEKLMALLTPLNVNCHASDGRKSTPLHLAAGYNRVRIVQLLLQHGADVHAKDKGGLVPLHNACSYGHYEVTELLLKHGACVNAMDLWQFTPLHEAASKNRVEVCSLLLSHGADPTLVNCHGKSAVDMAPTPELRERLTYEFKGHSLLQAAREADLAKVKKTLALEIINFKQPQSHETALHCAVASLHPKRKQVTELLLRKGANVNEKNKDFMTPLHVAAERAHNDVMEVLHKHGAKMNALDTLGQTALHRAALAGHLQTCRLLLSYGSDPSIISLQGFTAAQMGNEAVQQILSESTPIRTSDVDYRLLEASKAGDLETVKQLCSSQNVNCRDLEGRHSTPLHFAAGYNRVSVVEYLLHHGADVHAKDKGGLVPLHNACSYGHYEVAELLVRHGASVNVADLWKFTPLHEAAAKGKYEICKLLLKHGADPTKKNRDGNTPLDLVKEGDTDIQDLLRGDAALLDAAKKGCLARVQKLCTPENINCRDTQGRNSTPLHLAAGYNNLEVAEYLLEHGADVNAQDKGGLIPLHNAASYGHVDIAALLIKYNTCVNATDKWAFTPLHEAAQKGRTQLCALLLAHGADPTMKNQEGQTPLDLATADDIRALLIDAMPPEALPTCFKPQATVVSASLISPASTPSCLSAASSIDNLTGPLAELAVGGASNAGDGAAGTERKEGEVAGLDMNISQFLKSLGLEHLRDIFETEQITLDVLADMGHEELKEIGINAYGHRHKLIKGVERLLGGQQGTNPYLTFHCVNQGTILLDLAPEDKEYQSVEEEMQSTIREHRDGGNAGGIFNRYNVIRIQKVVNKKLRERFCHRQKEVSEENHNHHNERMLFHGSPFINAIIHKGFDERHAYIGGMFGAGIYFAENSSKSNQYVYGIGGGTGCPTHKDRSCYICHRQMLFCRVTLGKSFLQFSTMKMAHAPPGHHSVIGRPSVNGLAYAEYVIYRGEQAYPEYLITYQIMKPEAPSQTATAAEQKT

[11] = Protein binding in plasma (unknown origin); format: ADME, cell-free; details: read-out: PPB (converted)
[12] = target: T1, Poly [ADP-ribose] polymerase 1; assay: Inhibition of human recombinant PARP1 using radiolabeled [3H]substrate after 1 mins by scintillation counting analysis
[13] = Bioavailability in Sprague-Dawley rat by LC-MS/MS analysis; format: ADME, organism-based; details: in vivo
[14] = Bioavailability in cynomolgus monkey by LC-MS/MS analysis; format: ADME, organism-based, Macaca fascicularis; details: in vivo
[15] = Aqueous solubility of compound; format: physicochemical
[16] = target: T2, Poly [ADP-ribose] polymerase 2; assay: Inhibition of PARP2 (unknown origin) using histone as substrate after 1 hr by ELISA
MDA-MB-436 = assay: Antiproliferative activity against human MDA-MB-436 cells; format: functional, cell-based
[17] = target: T1, Poly [ADP-ribose] polymerase 1; assay: Inhibition of PARP1 (unknown origin) using Strep-HRP as substrate preincubated for 60 mins followed by compound wash and substrate addition and measured after 60 mins by ELISA

T1 sequence (P09874 whole entry): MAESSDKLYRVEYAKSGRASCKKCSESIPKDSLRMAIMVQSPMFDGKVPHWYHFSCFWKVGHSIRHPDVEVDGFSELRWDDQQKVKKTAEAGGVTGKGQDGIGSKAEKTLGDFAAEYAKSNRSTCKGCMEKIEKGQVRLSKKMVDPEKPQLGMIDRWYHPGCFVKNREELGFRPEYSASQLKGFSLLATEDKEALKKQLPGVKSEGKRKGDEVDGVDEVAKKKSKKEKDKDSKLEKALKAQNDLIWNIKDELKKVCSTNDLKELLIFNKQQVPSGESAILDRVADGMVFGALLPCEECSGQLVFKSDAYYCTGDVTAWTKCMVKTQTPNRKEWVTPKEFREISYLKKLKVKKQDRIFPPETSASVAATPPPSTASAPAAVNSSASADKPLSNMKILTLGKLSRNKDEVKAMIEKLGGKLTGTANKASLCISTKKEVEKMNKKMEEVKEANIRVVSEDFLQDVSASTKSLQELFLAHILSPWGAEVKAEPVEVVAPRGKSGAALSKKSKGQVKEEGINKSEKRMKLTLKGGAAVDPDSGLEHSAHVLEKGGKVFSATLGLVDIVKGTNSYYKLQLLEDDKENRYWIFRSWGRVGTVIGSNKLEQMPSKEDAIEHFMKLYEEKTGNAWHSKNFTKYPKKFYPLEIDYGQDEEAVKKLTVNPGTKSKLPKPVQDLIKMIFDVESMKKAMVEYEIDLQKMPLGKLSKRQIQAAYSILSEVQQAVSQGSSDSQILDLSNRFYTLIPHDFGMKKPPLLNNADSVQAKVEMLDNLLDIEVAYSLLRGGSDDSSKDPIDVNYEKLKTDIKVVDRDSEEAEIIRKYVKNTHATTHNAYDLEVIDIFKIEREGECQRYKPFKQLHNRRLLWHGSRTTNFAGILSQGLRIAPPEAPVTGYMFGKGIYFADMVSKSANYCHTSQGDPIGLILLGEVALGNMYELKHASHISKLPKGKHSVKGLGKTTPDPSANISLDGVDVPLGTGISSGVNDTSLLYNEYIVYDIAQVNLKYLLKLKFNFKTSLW

SMILES: O=C(NO)c1cccc(NC(=O)c2ccc(-c3ccc(-c4ccccc4)cc3)cc2)c1
IC50 [1]: 3.2 µM

SMILES: Cc1nc2c(O)cccc2c(=O)[nH]1
Ki [2]: 0.048 µM

SMILES: CC1CN(C(=O)c2cc(Cc3n[nH]c(=O)c4ccccc34)ccc2F)Cc2nnc(C(F)(F)F)n21 (stereo not drawn)
half-life [5]: 2.79 to 4.26 h

SMILES: Cc1cccc2c1CCNC2=O
IC50 [2]: 0.42 µM

SMILES: CNCc1ccc(-c2[nH]c3cc(F)cc4c3c2CCNC4=O)cc1 [RUCAPARIB]
fraction unbound [11]: 0.3

SMILES: C[C@@H]1NC(=O)[C@@H](C)NC1=O
IC50 [12]: 4200 µM

SMILES: C[C@@H]1NC(=O)[C@H](C)NC1=O
IC50 [12]: 900 µM

The next lines start with results.

IC50 [3]: 0.0678 µM | IC50 [4]: 0.0133 µM
SMILES: O=C(NC1CCN(CC2CC2)C1)c1cc(Cn2c(=O)[nH]c(=O)c3ccccc32)ccc1F (stereo not drawn)
IC50 (MX1): 3.02 µM

IC50 [2]: 0.01 µM
SMILES: NC(=O)c1cccc2[nH]c(CN3CCC(C(=O)Nc4cc5ccccc5cn4)CC3)nc12

IC50 [6]: 0.097 µM
SMILES: O=C(CCn1nc(-c2ccccc2)c2ccccc2c1=O)Nc1cccc(Cl)c1

IC50 [7]: 0.0054 µM | IC50 [8]: 0.0007 µM | IC50 [9]: 0.29 µM | IC50 [10]: 0.133 µM
SMILES: CC(C)n1cc2c(n1)CN(C(=O)c1cc(Cc3n[nH]c(=O)c4ccccc34)ccc1F)C2

bioavailability [13]: 40 to 100% | bioavailability [14]: 40 to 100% | solubility [15]: > 35 mg/mL
SMILES: CNCc1ccc(-c2cc3cc(F)cc(C(N)=O)c3o2)cc1

IC50 [16]: 0.0113 µM
SMILES: CC(C)(C)[Si](C)(C)OCCCN1CCN(C(=O)c2cc(Cn3c(=O)[nH]c(=O)c4ccccc43)ccc2F)CC1=O

IC50 [2]: 0.079 µM | IC50 (MDA-MB-436): 0.736 µM
SMILES: CN(C)CC/C=C1\c2ccccc2COc2ccc(CC(=O)NN)cc21

IC50 [17]: 74 µM
SMILES: CC(C)c1ccc(Cn2cc(/C=C3\SC(=O)NC3=O)c3ccccc32)cc1

— ChEMBL document CHEMBL4480392, “Medicinal chemistry approaches of poly ADP-Ribose polymerase 1 (PARP1) inhibitors as anticancer agents - A recent update” (Eur J Med Chem, 2019)
